Data published in patent US8168596B2, “Use of cycloartane compounds for treating arthritis” (NuLiv Holding Inc., priority 2008, dated 2012).

Columns and labels:
MMP1 [1] = conditions: UO126 10 μM, SP600125 25 μM, SB203580 5 μM, 24 h, then PMA 100 ng/mL 24 h
Method: The SW1353 cells were grown at 37° C. in a humidified incubator under 5% CO2 and 95% air in the culture medium as described above. The SW1353 cells were then sub-cultured into 6-well culture plates with serum free medium at an average amount of 2×10^5 cells per well and incubated for 24 hours. Then, the SW1353 cells were treated with 10 μM UO126 (MEK1-specific inhibitor), 25 μM, SP600125 (JNK-specific inhibitor), 5 μM SB203580 (p38-specific inhibitor), or 20 μM LY294002 (PI3K kinase inhibitor), and incubated for another 24 hours. Later, the SW1353 cells were treated with 100 ng/mL PMA and again incubated for 24 hours. Finally, the SW1353 cells were under cell extraction and the cell lysate was used for further luciferase analysis and western blotting analysis.
The SW1353 cells were grown at 37° C. in a humidified incubator under 5% CO2 and 95% air in the culture medium as described above. The SW1353 cells were then sub-cultured into 24-well culture plates and cultured for 24 hours. […] Following cell extraction, the cell lysate was centrifuged at 4° C., 20000 g for 30 minutes and then transferred to a 1.5 ml-microcentrifuge tube. Then, 100 μl buffer A (0.1 mM luciferin) and 350 μl buffer B (1 M MgSO4, 1 M Hepes (pH 7.8), 0.1 M ATP) were added into the microcentrifuge tube. The luciferase activity of final mixture was measured by a luminometer for 30 seconds.

MMP1 [2] = experiment: Western blotting, kinase inhibitors on MMP1 protein expression induced by PMA in SW1353 cells; format: cell-based, human; conditions: UO126 10 μM, SP600125 25 μM, 24 h, then PMA 100 ng/mL 24 h
Method: Western blotting analysis was carried out based on the following procedure. Cells were washed and lysed in 0.2 mL of lysis buffer (1% NP-40, 50 mM Tris-HCl, pH 7.4, 180 mM NaCl, 1 mM EDTA, 1 mM PMSF, 1 mM NaF, 10 mM Na3VO4) for 30 min at 4° C. After centrifugation at 17500 g for 15 min, the supernatants of cell lysate were collected. Protein concentrations of the samples were measured using the bicinchoninic acid (BCA) protein assay kit according to the manufacturer's protocol (Pierce, Rockford, Ill., USA). Equal amounts of protein samples of concentrated conditioned medium (100 μg) or cell lysate supernatants (50 μg) were mixed with an appropriate volume of 4×SDS sampling buffer and separated on a 8% SDS-PAGE gel. The protein bands separated on the SDS-PAGE gel were blotted onto a polyvinylidene fluoride (PVDF) membrane. The blotted PVDF membrane was washed twice and blocked in freshly prepared Tris-buffered saline (TBS) containing 0.1% Tween-20 and 7% skim milk (TBST) for 2 hours at room temperature. The PVDF membrane was then incubated with a primary antibody against MMP1 protein (Santa Cruz Biotechnology, Santa Cruz, Calif.) for 18 hours at 4° C. Horseradish peroxidase-conjugated anti-goat antibody was used as the secondary antibody. Signals were visualized by an enhanced chemiluminescence kit (Clonetech, Palo Alto, Calif., USA) followed by exposure to X-ray films. […]

N#CC(=C(/N)Sc1ccccc1N)/C(C#N)=C(/N)Sc1ccccc1N [UO126]
luciferase activity (control group 1 fold, PMA-only group 8 fold) (MMP1 [1]): 2.6 fold | protein expression by western blotting (effect of kinase inhibitors on MMP1 protein expression induced by PMA) (MMP1 [2]): significantly reduced
